Measurements: US20240148836A1, “COMPOSITION FOR TREATING CANCER EXPRESSING SPARC” (SEOUL NATIONAL UNIVERSITY R&DB FOUNDATION, priority 2021, published 2024)
“Also recorded” adds a separate entry of the source.

Columns and labels:
[1] = system: U87MG cells; test: Cellular cytotoxicity, Cell Counting Kit-8 (CCK-8) assay; format: cell-based, Human; settings: 72 h
Protocol: (§1) Human glioma cells (U87MG) were obtained from American Type Culture Collection (ATCC; Manassas, VA, USA). Low SPARC-expressing U87MG cells, U87MG-shSPARC, were established from a previous study.
(§2) (1) U87MG and U87MG-shSPARC cells were added to 96-well plates (4000 cells/well). […] Cell viability was analyzed using a Cell Counting Kit-8 (CCK-8, Dojindo Molecular Technologies, Tokyo, Japan) assay according to the manufacturer's protocols.
(2) To execute cellular cytotoxicity experiments of HSA bound with CDDPs in different numbers, U87MG cells were added to a 96-well plate (4000 cells/well) and incubated overnight. […] Cell viability was analyzed using a Cell Counting Kit-8 (CCK-8, Dojindo Molecular Technologies, Tokyo, Japan) assay according to the manufacturer's protocols.

[2] = system: U87MG-shSPARC cells; test: as above; format: cell-based, Human; settings: 72 h, CCK-8, n=5, Table 1
Protocol: as §1, §2

[3] = system: U87MG tumor xenograft; test: Xenograft tumor model, anti-tumor effect in vivo; set-up: species or system BALB/c nude mice; settings: for weight of mice: xenograft tumor models (U87MG and U87MG-shSPARC), FIG. 5C, 5D, 3 mg/kg IV 7 times
Protocol: BALB/c nude mice (5-week-old, male) were purchased from Orient Bio Inc. (Seongnam, Korea). U87MG or U87MG-shSPARC cells (2×10^6 cells/site) were injected subcutaneously into the right lower flanks.
(§3) The tumor size and body weight of each mouse were recorded every other day. Tumor volume was calculated using the equation V=0.5×L×W^2, where L represents tumor length and W represents tumor width.

[4] = system: U87MG-shSPARC tumor xenograft; test: Xenograft tumor model, anti-tumor effect in vivo; set-up: species or system BALB/c nude mice
Protocol: All animal studies were performed under approval from the Seoul National University Institutional Animal Care and Use Committee (IACUC No. 18-0231, 1 Nov. 2018). BALB/c nude mice (5-week-old, male) were purchased from Orient Bio Inc. (Seongnam, Korea). U87MG or U87MG-shSPARC cells (2×10^6 cells/site) were injected subcutaneously into the right lower flanks.
as §3

[5] = system: U87MG tumors; test: Tumor CDDP accumulation using ICP-MS; format: in vivo, mice; settings: 72 h after last of 7 IV doses, FIG. 6B
Protocol: For tumor CDDP distribution, U87MG or U87MG-shSPARC cells (2×10^6 cells/site) were injected subcutaneously into the right lower flanks. […] At 72 h after the last IV administration (15 days after first administration), mice were euthanized, and the tumor was acquired.
All samples (organs, blood, and tumors) were lyophilized and we analyzed the amount of CDDP using the ICP-MS (NexION 350; Perkin-Elmer, Waltham, MA, USA) installed at the National Center for Inter-university Research Facilities (NCIRF) at Seoul National University.

[6] = Biosafety: body weight and blood biochemical analysis; format: in vivo, mice
Protocol: After centrifugation at 4° C. for 20 min, the plasma was collected for blood biochemical analysis. The concentrations of AST, ALT, BUN, and creatinine were analyzed at DKKorea (Seoul, Korea).

[7] = Histopathology examination, H&E staining; format: in vivo; settings: drug-treated mice, FIG. 7B
Description: The kidney, liver, and spleen of the drug-treated mice were acquired and fixed with 4% paraformaldehyde. Tissues were embedded in paraffin and stained with hematoxylin and eosin (H&E). H&E staining images were acquired using an optical microscope (Olympus BX43, Tokyo, Japan).

[8] = TUNEL assay of kidney sections; format: in vivo, mice; settings: FIGS. 8A and 8B
Description: The tumor and kidney were fixed with 4% paraformaldehyde and embedded in paraffin, which was further cut into […] sections. To evaluate cellular apoptosis in kidney, a kidney section was stained using a TUNEL assay kit-HRP-DAB (ab206386; abcam, Cambridge, UK) according to the manufacturer's protocols.

## N.N.[Cl][Pt][Cl] [CDDP, cis-diamine dichloroplatinum (II)]
[1]; CCK-8, n=5, Table 1
  IC50: 2540 ± 134 nM
[1]; CCK-8, n=6, Table 2 (CDDP number-dependent HSA)
  IC50: 4720 ± 110 nM
[2]
  IC50: 2650 ± 130 nM
[3]; U87MG tumor model vs PBS group, FIG. 5E
  survival rate: prolonged survival time than the PBS group
[3]; U87MG tumor model, 12 days after first drug treatment, 3 mg/kg CDDP equivalent IV every other day 7 times, p<0.001
  tumor growth: significantly reduced tumor growth than the PBS group
[3]; U87MG tumor xenograft model, 3 mg/kg CDDP equivalent IV 7 times
  Median survival: 22 days
[3]
  weight of mice: significantly decreased
[3]; listed as CCDP
  weight of mice: significant weight loss compared to the group treated with PBS
[4]; U87MG-shSPARC tumor model vs PBS group, FIG. 5F
  survival rate: prolonged survival
[4]; U87MG-shSPARC tumor model, 26 days after first drug treatment, 3 mg/kg CDDP equivalent IV every other day 7 times
  tumor growth: significantly reduced tumor growth than the PBS group
[4]; U87MG-shSPARC tumor xenograft model, 3 mg/kg CDDP equivalent IV 7 times
  Median survival: 42 days
[5]
  accumulation of CDDP, U87MG vs U87MG-shSPARC tumors: no difference in CDDP accumulation between U87MG and U87MG-shSPARC
[6]; 72 h after final treatment (every other day, seven times), FIG. 7A
  body weight: significant body weight loss compared to the PBS and HSA-CDDP groups
[6]; kidney function, 72 h after final treatment
  blood urea nitrogen (BUN): increased
[7]
  H&E staining of kidney tissue: tubular degeneration; also recorded: extensive epithelial vacuolization; also recorded: degeneration of renal tubules; also recorded: vacuolation of epithelial cells
[8]
  TUNEL positive cells in kidney: TUNEL positive cells were only identified in the kidney of CDDP-treated mice
